According to BigSolDB 2.1:

COc1ccc2cccc(CCNC(C)=O)c2c1
solubility (mole fraction)
Conditions | in ethanol | in ethyl acetate | in isopropanol | in methanol | in n-butanol | in n-butyl acetate | in n-pentyl acetate | in n-propanol | in n-propyl acetate | in water
278.15 K | 0.0109 | 0.00662 | 0.00499 | 0.0192 | 0.00986 | 0.00323 | 0.00181 | 0.00905 | 0.00406 | 1.8e-05
283.15 K | 0.0169 | 0.00934 | 0.0107 | 0.0264 | 0.0147 | 0.00474 | 0.00281 | 0.016 | 0.00625 | 2.9e-05
288.15 K | 0.0235 | 0.0131 | 0.0186 | 0.0347 | 0.0214 | 0.00661 | 0.00432 | 0.0201 | 0.00886 | 4.59e-05
293.15 K | 0.0319 | 0.0175 | 0.0256 | 0.0442 | 0.0279 | 0.00944 | 0.00601 | 0.0261 | 0.0127 | 6.85e-05
298.15 K | 0.0425 | 0.0263 | 0.032 | 0.0584 | 0.04 | 0.0134 | 0.00884 | 0.0402 | 0.018 | 0.000119
303.15 K | 0.0542 | 0.0342 | 0.039 | 0.0752 | 0.05 | 0.0207 | 0.0156 | 0.0484 | 0.0255 | 0.000161
308.15 K | 0.0819 | 0.0454 | 0.053 | 0.101 | 0.06 | 0.0261 | 0.021 | 0.0694 | 0.0364 | 0.000248
313.15 K | 0.109 | 0.0598 | 0.0686 | 0.147 | 0.0802 | 0.038 | 0.0294 | 0.0892 | 0.0466 | 0.00038
318.15 K | 0.144 | 0.0754 | 0.0893 | 0.18 | 0.107 | 0.0507 | 0.0397 | 0.115 | 0.0639 | 0.000551
